{
  "source": "patent US20240132464A1",
  "about": "“HETEROCYCLIC COMPOUNDS AS E3 LIGASE INHIBITORS” (Accutar Biotechnology Inc., priority 2022, published 2024)",
  "data": [
    {"biological_target": "T1, GID4 (Uniprot ID: Q81VV7, residues 124-289) (Homo sapiens, UniProt Q8IVV7)", "T1 construct": "GID4 (Uniprot ID: Q81VV7, residues 124-289)", "T1 sequence (Q8IVV7 124-289)": "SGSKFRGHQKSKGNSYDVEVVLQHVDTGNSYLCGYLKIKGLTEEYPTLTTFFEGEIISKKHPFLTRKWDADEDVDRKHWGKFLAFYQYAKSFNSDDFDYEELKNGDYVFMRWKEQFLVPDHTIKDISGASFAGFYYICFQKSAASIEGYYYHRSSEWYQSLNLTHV", "experiment": "GID4 competitive binding assay (AlphaScreen, GID4/degron peptide PGLW)", "conditions": "24 nM GID4, 48 nM biotinylated degron peptide PGLW, 4° C., read-out: IC50 (Inhibition of GID4/Degron binding by test compounds)", "method_in_brief": "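His-tagged human GID4 (residues 124-289, 24 nM) pre-incubated 2 h at 4 °C with 48 nM biotinylated PGLW peptide and compound in HEPES pH 7.5 buffer, 2% DMSO (final). AlphaScreen streptavidin donor/Ni-NTA acceptor beads added for 1 h; IC50 from nonlinear fit of % inhibition versus DMSO.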", "units": {"IC50": "nM"}, "values": [
      {"smiles": "CC(C)c1cc(N2CCCC(c3cnc4ccccn34)C2)c2cc[nH]c2n1", "note": "(centres unmarked) [Compound 370, 3-(1-(6-isopropyl-1H-pyrrolo[2,3-b]pyridin-4-yl)piperidin-3-yl)imidazo[1,2-a]pyridine]", "IC50": "< 500"},
      {"smiles": "Nc1nc(NC2CC2)cc(N2CCO[C@H](c3ccccc3Br)C2)n1", "note": "(stereo in doubt) [Compound 97, (R/S)-6-(2-(2-bromophenyl)morpholino)-N4-cyclopropylpyrimidine-2,4-diamine]", "IC50": "> 5000"},
      {"smiles": "CC(C)c1cc(N2CCNC(c3cc(C(=O)N4CCN(C)CC4)ccc3Br)C2)nc(N)n1", "note": "(single isomer, unassigned) [Compound 17, (R/S)-(3-(4-(2-amino-6-isopropylpyrimidin-4-yl)piperazin-2-yl)-4-bromophenyl)(4-methylpiperazin-1-yl)methanone]", "IC50": "< 500"},
      {"smiles": "Nc1cc(N2CCN[C@@H](c3cc(C(F)(F)F)ccc3Br)C2)nc(N)n1", "note": "(racemic) [Compound 12, (S/R)-6-(3-(2-bromo-5-(trifluoromethyl)phenyl)piperazin-1-yl)pyrimidine-2,4-diamine]", "IC50": "< 500"},
      {"smiles": "Nc1cc(N2CCOC(c3ccccc3Br)C2)nc(N)n1", "note": "(single isomer, unassigned) [Compound 146, (S/R)-6-(2-(2-bromophenyl)morpholino)pyrimidine-2,4-diamine]", "IC50": "< 500"},
      {"smiles": "CN(C)CCCNC(=O)c1nnc(-c2cc(O)c3ncccc3c2)[nH]1", "note": "[Compound 262, N-(3-(dimethylamino)propyl)-5-(8-hydroxyquinolin-6-yl)-4H-1,2,4-triazole-3-carboxamide]", "IC50": "< 500"},
      {"smiles": "Nc1nc(NC2CC2)cc(N2CCNC(c3ccccc3Br)C2)n1", "note": "(single isomer, unassigned) [Compound 121, (R/S)-6-(3-(2-bromophenyl)piperazin-1-yl)-N4-cyclopropylpyrimidine-2,4-diamine]", "IC50": "> 5000"},
      {"smiles": "CC(C)c1cc(N2CCCC(c3cnc4ccncn34)C2)nc(N)n1", "note": "(centres unmarked) [Compound 239, 4-(3-(imidazo[1,2-c]pyrimidin-3-yl)piperidin-1-yl)-6-isopropylpyrimidin-2-amine]", "IC50": "500 to 5000"},
      {"smiles": "Nc1nc(NC2CC2)cc(N2CCO[C@@H](c3ccccc3Br)C2)n1", "note": "(stereo in doubt) [Compound 98, (S/R)-6-(2-(2-bromophenyl)morpholino)-N4-cyclopropylpyrimidine-2,4-diamine]", "IC50": "< 500"},
      {"smiles": "Nc1nc(NC2CC2)cc(N2CCCC(c3cnc4ccccn34)C2)n1", "note": "(centres unmarked) [Compound 107, N4-cyclopropyl-6-(3-(imidazo[1,2-a]pyridin-3-yl)piperidin-1-yl)pyrimidine-2,4-diamine]", "IC50": "500 to 5000"},
      {"smiles": "CNc1cc(N2CCN(C)[C@@H](c3ccccc3Br)C2)nc(NC)n1", "note": "(stereo in doubt) [Compound 81, (S/R)-6-(3-(2-bromophenyl)-4-methylpiperazin-1-yl)-N2,N4-dimethylpyrimidine-2,4-diamine]", "IC50": "500 to 5000"},
      {"smiles": "Cc1c(-c2ccc(Br)c(C3CN(c4cc(N)nc(N)n4)CCN3)c2)cnn1C", "note": "(single isomer, unassigned) [Compound 4, (R/S)-6-(3-(2-bromo-5-(1,5-dimethyl-1H-pyrazol-4-yl)phenyl)piperazin-1-yl)pyrimidine-2,4-diamine]", "IC50": "500 to 5000"},
      {"smiles": "Nc1nc(NC2CC2)cc(N2CCOC(c3ccccc3)C2)n1", "note": "(single isomer, unassigned) [Compound 96, (R/S)-N4-cyclopropyl-6-(2-phenylmorpholino)pyrimidine-2,4-diamine]", "IC50": "> 5000"},
      {"smiles": "CNc1cc(N2CCC[C@H](c3ccccc3Br)C2)nc(N)n1", "note": "(stereo in doubt) [Compound 86, (R/S)-6-(3-(2-bromophenyl)piperidin-1-yl)-N4-methylpyrimidine-2,4-diamine]", "IC50": "500 to 5000"},
      {"smiles": "Nc1nc(C2CC2)cc(N2CCCC(c3cnc4ccccn34)C2)n1", "note": "(centres unmarked) [Compound 139, 4-cyclopropyl-6-(3-(imidazo[1,2-a]pyridin-3-yl)piperidin-1-yl)pyrimidin-2-amine]", "IC50": "< 500"},
      {"smiles": "CN1CCN(c2cc(NCC3CC3)nc(N)n2)CC1c1ccccc1Br", "note": "(single isomer, unassigned) [Compound 99, (R/S)-6-(3-(2-bromophenyl)-4-methylpiperazin-1-yl)-N4-(cyclopropylmethyl)pyrimidine-2,4-diamine]", "IC50": "< 500"},
      {"smiles": "CC(C)c1cc(N2CCNC(c3cc(C(=O)N4CCN(C)CC4)ccc3Br)C2)nc(N)n1", "note": "(single isomer, unassigned) [Compound 18, (S/R)-(3-(4-(2-amino-6-isopropylpyrimidin-4-yl)piperazin-2-yl)-4-bromophenyl)(4-methylpiperazin-1-yl)methanone]", "IC50": "500 to 5000"},
      {"smiles": "Nc1nc2c(c(N3CCCC(c4nnc5ccccn45)C3)n1)SCC2", "note": "(centres unmarked) [Compound 191, 4-(3-([1,2,4]triazolo[4,3-a]pyridin-3-yl)piperidin-1-yl)-6,7-dihydrothieno[3,2-d]pyrimidin-2-amine]", "IC50": "> 5000"},
      {"smiles": "Nc1cc(N2CCNC(c3cnc4ccccn34)C2)nc(N)n1", "note": "(racemic) [Compound 120, (R/S)-6-(3-(imidazo[1,2-a]pyridin-3-yl)piperazin-1-yl)pyrimidine-2,4-diamine]", "IC50": "500 to 5000"},
      {"smiles": "CN(C)CCNC(=O)c1n[nH]c2ccc(-c3ccc4ccnc(N)c4c3)cc12", "note": "[Compound 341, 5-(1-aminoisoquinolin-7-yl)-N-(2-(dimethylamino)ethyl)-1H-indazole-3-carboxamide]", "IC50": "< 500"},
      {"smiles": "CCc1ccccc1C1CN(c2cc(C(C)C)nc(N)n2)CCN1", "note": "(centres unmarked) [Compound 168, 4-(3-(2-ethylphenyl)piperazin-1-yl)-6-isopropylpyrimidin-2-amine]", "IC50": "500 to 5000"},
      {"smiles": "Nc1nc(C2CC2)cc(N2CCN[C@H](c3ccccc3Br)C2)n1", "note": "(stereo in doubt) [Compound 132, (R/S)-4-(3-(2-bromophenyl)piperazin-1-yl)-6-cyclopropylpyrimidin-2-amine]", "IC50": "500 to 5000"},
      {"smiles": "Nc1nc(NCC2CC2)cc(N2CCNC(c3ccccc3Br)C2)n1", "note": "(single isomer, unassigned) [Compound 111, (R/S)-6-(3-(2-bromophenyl)piperazin-1-yl)-N4-(cyclopropylmethyl)pyrimidine-2,4-diamine]", "IC50": "500 to 5000"}
    ]}
  ]
}
